One block for each compound: values may come before it.
How the values were obtained:
[1] = tested on: NRF2 (nuclear factor erythroid 2-related factor 2); experiment: NRF2 +/−GSH activation assay (DiscoverX PathHunter NRF2 translocation kit, U2OS cells); assay type: cell-based; conditions: Homo sapiens; for Emax: U2OS, normalised to dimethyl fumarate high control; for EC50: U2OS PathHunter cells, 6 hours
[2] = tested on: hepatocytes; experiment: Hepatocyte stability assay, human; assay type: in vitro ADME; conditions: 10 μM compound, 0.5×10^6 cells/mL, 60 min
Description: (§1) Defrosted cryo-preserved hepatocytes (viability>70%) may be used to determine the metabolic stability of a compound via calculation of intrinsic clearance (Clint; a measure of the removal of a compound from the liver in the absence of blood flow and cell binding). Clearance data are particularly important for in vitro work as they can be used in combination with in vivo data to predict the half-life and oral bioavailability of a drug.
(§2) The metabolic stability in hepatocytes assay involves a time-dependent reaction using both positive and negative controls. The cells were pre-incubated at 37° C. and spiked with test compound (and positive control); samples were taken at pre-determined time intervals and analysed to monitor the change in concentration of the initial drug compound over 60 minutes. A buffer incubation reaction (with no hepatocytes present) acted as a negative control and two cocktail solutions, containing compounds with known high and low clearance values (verapamil/7-hydroxycoumarin and propranolol/diltiazem), acted as positive controls. • 1. The assay was run with a cell concentration of 0.5×10^6 cells/mL in Leibovitz buffer. • 2. All compounds and controls were run in duplicate. • 3. Compound concentration was 10 μM. • 4. All compounds and controls were incubated with both cells and buffer to show turnover was due to hepatic metabolism. • 5. All wells on the incubation plate had 326.7 μL of either cells or buffer added. • 6. Prior to assay, cell and buffer-only incubation plates were preincubated for 10 mins at 37° C. • 7. The assay was initiated by adding compounds, 3.3 μL of 1 mM in 10% DMSO-90% Buffer; final DMSO concentration is 0.1%. • 8. Samples were taken at regular timepoints (0, 5, 10, 20, 40, 60 min) until 60 mins. • 9. Sample volume was 40 μL and was added to 160 μL of crash solvent (acetonitrile with internal standard) and stored on ice. • 10. At the end of the assay, the crash plates were centrifuged at 3500 rpm for 20 mins at 4° C. • 11. 80 μL of clear supernatant was removed and mixed with 80 μL of deionised water before being analysed by LC-MS/MS.
(§3) Raw LC-MS/MS data was exported to, and analysed in, Microsoft Excel for determination of intrinsic clearance. The percentage remaining of a compound was monitored using the peak area of the initial concentration as 100%. Intrinsic clearance and half-life values were calculated using a graph of the natural log of percentage remaining versus the time of reaction in minutes. Half-life (min) and intrinsic clearance (Clint in μL min^−1 10^−6 cells) values were calculated using the gradient of the graph (the elimination rate constant, k) and Equations 1 and 2.

[3] = Hepatocyte stability assay, human; assay type: in vitro ADME; conditions: cryopreserved hepatocytes, 10 μM compound, 0.5×10^6 cells/mL, 60 min, read-out: T½
Description: as §1, §2, §3

[4] = tested on: IL-1β cytokine output from THP-1 cells; experiment: THP-1 AlphaLISA IL-1β cytokine assay; assay type: cell-based; conditions: Homo sapiens, THP-1, differentiated THP-1 cells
Experimental: (§4) Measuring Inhibitory Effects on IL-1β and IL-6 Cytokine Output from THP-1s
(§5) The cytokine inhibition profiles of compounds of formula (I) were determined in a differentiated THP-1 cell assay. All assays were performed in RPMI-1640 growth medium (Gibco), supplemented with 10% fetal bovine serum (FBS; Gibco), 1% penicillin-streptomycin and 1% sodium pyruvate unless specified otherwise. The IL-1β and IL-6 cytokine inhibition assays were each run in a background of differentiated THP-1 cells as described below. All reagents described were from Sigma-Aldrich unless specified otherwise. Compounds were prepared as 10 mM DMSO stocks.
(§6) THP-1 cells were expanded as a suspension up to 80% confluence in appropriate growth medium. Cells were harvested, suspended, and treated with an appropriate concentration of phorbol 12-myristate 13-acetate (PMA) over a 72 hr period (37° C./5% CO2).
(§7) Following 72 hrs of THP-1 cell incubation, cellular medium was removed and replaced with fresh growth media containing 1% of FBS. Working concentrations of compounds were prepared separately in 10% FBS treated growth medium and pre-incubated with the cells for 30 minutes (37° C./5% CO2). Following the 30 minute compound pre-incubation, THP-1s were treated with an appropriate concentration of LPS and the THP-1s were subsequently incubated for a 24 hr period (37° C./5% CO2). An appropriate final concentration of Nigericin was then dispensed into the THP-1 plates and incubated for 1 hour (37° C./5% CO2) before THP-1 supernatants were harvested and collected in separate polypropylene 96-well holding plates.
(§8) Reagents from each of the […] and IL-6 commercial kits (Perkin Elmer) were prepared and run according to the manufacturer's instructions. Subsequently, fluorescence signal detection in a microplate reader was measured (EnVision® Multilabel Reader, Perkin Elmer).
(§9) Percentage inhibition was calculated per cytokine by normalising the sample data to the high and low controls used within each plate (+/−LPS respectively). Percentage inhibition was then plotted against compound concentration and the 50% inhibitory concentration (IC50) was determined from the resultant concentration-response curve.

[5] = tested on: IL-6 cytokine output from THP-1 cells; experiment: THP-1 AlphaLISA IL-6 cytokine assay; assay type: cell-based; conditions: Homo sapiens, THP-1, differentiated THP-1 cells
Experimental: as §4, §5, §6, §7, §8, §9

[6] = tested on: hepatocytes; experiment: Hepatocyte stability assay, mouse; assay type: in vitro ADME; conditions: 10 μM compound, 0.5×10^6 cells/mL, 60 min
Description: as §1, §2, §3

[7] = Hepatocyte stability assay, mouse; assay type: in vitro ADME; conditions: cryopreserved hepatocytes, 10 μM compound, 0.5×10^6 cells/mL, 60 min, read-out: T½
Description: as §1, §2, §3

[8] = +GSH, 30 minute compound-GSH pre-incubation
[9] = LPS 24 hr then Nigericin 1 hour

Compound: C=C(CC(=O)OC1(c2cc(Cl)cc(Cl)c2)CCC1)C(=O)OCC(=O)O [Example 1, 2-((4-(1-(3,5-dichlorophenyl)cyclobutoxy)-2-methylene-4-oxobutanoyl)oxy)acetic acid]
Emax ([1]; +GSH): 259% | Emax ([1]; −GSH): 375% | EC50 [1, 8]: 11.1 µM | EC50 ([1]; −GSH): 7.7 µM | CIint [2]: 13 μL min^−1 10^−6 cells | half-life at 10 μM [3]: 116 min | IC50 [4, 9]: 9.4 µM | IC50 [5, 9]: 4.6 µM | CIint [6]: 52 μL min^−1 10^−6 cells | half-life at 10 μM [7]: 24 min

Compound: C=C(CC(=O)OC1(c2ccc(C(F)(F)F)cc2)CCC1)C(=O)OCC(=O)O [Example 2, 2-((2-methylene-4-oxo-4-(1-(4-(trifluoromethyl)phenyl)cyclobutoxy)butanoyl)oxy)acetic acid]
Emax ([1]; +GSH): 167% | Emax ([1]; −GSH): 217% | EC50 [1, 8]: 21.6 µM | EC50 ([1]; −GSH): 15.4 µM | CIint [2]: <3 μL min^−1 10^−6 cells | half-life at 10 μM [3]: > 460 min | IC50 [4, 9]: 7.7 µM | IC50 ([4]; from repeated experiments): 9.1 µM | IC50 [5, 9]: 5.2 µM | IC50 ([5]; from repeated experiments): 7.7 µM | CIint [6]: 50 μL min^−1 10^−6 cells | half-life at 10 μM [7]: 38 min

Compound: C=C(CC(=O)OC1(c2ccc(Br)cc2)CCC1)C(=O)OCC(=O)O [Example 3, 2-((4-(1-(4-bromophenyl)cyclobutoxy)-2-methylene-4-oxobutanoyl)oxy)acetic acid]
CIint [2]: 9 μL min^−1 10^−6 cells | half-life at 10 μM [3]: 174 min | IC50 [4, 9]: 12.1 µM | IC50 [5, 9]: 11.3 µM | CIint [6]: 95 μL min^−1 10^−6 cells | half-life at 10 μM [7]: 20 min

Compound: C=C(CC(=O)OC1(c2ccc(Cl)cc2)CCC1)C(=O)OCC(=O)O [Example 4, 2-((4-(1-(4-chlorophenyl)cyclobutoxy)-2-methylene-4-oxobutanoyl)oxy)acetic acid]
Emax ([1]; +GSH): 171% | Emax ([1]; −GSH): 192% | EC50 [1, 8]: 28.9 µM | EC50 ([1]; −GSH): 19 µM | CIint [2]: 8 μL min^−1 10^−6 cells | half-life at 10 μM [3]: 189 min | IC50 [4, 9]: 12.4 µM | IC50 [5, 9]: 6.9 µM | CIint [6]: 69 μL min^−1 10^−6 cells | half-life at 10 μM [7]: 28 min

Compound: C=C(CC(=O)OC1(c2cc(Cl)ccc2Cl)CCC1)C(=O)OCC(=O)O [Example 5, 2-((4-(1-(2,5-dichlorophenyl)cyclobutoxy)-2-methylene-4-oxobutanoyl)oxy)acetic acid]
Emax ([1]; +GSH): 185% | Emax ([1]; −GSH): 208% | EC50 [1, 8]: 25.4 µM | EC50 ([1]; −GSH): 16 µM | CIint [2]: 9 μL min^−1 10^−6 cells | half-life at 10 μM [3]: 172 min | IC50 [4, 9]: 10.6 µM | IC50 [5, 9]: 5.3 µM | CIint [6]: 80 μL min^−1 10^−6 cells | half-life at 10 μM [7]: 24 min

Compound: C=C(CC(=O)OC1(c2ccc(OC(F)(F)F)cc2Cl)CCC1)C(=O)OCC(=O)O [Example 6, 2-((4-(1-(2-chloro-4-(trifluoromethoxy)phenyl)cyclobutoxy)-2-methylene-4-oxobutanoyl)oxy)acetic acid]
Emax ([1]; +GSH): 187% | Emax ([1]; −GSH): 219% | EC50 [1, 8]: 15.4 µM | EC50 ([1]; −GSH): 11.9 µM | CIint [2]: 18 μL min^−1 10^−6 cells | half-life at 10 μM [3]: 85 min | IC50 [4, 9]: 12.7 µM | CIint [6]: >460 μL min^−1 10^−6 cells | half-life at 10 μM [7]: < 3 min

Compound: C=C(CC(=O)OC1(c2ccc(OC(F)(F)F)cc2)CCC1)C(=O)OCC(=O)O [Example 9, 2-((2-methylene-4-oxo-4-(1-(4-(trifluoromethoxy)phenyl)cyclobutoxy)butanoyl)oxy)acetic acid]
Emax ([1]; +GSH): 182% | Emax ([1]; −GSH): 210% | EC50 [1, 8]: 7.3 µM | EC50 ([1]; −GSH): 5.1 µM | CIint [2]: 6 μL min^−1 10^−6 cells | half-life at 10 μM [3]: 251 min | IC50 [4, 9]: 12.1 µM | CIint [6]: 66 μL min^−1 10^−6 cells | half-life at 10 μM [7]: 29 min

Compound: C=C(CC(=O)OC1(c2ccc(Cl)cc2Cl)CCC1)C(=O)OCC(=O)O [Example 10, 2-((4-(1-(2,4-dichlorophenyl)cyclobutoxy)-2-methylene-4-oxobutanoyl)oxy)acetic acid]
Emax ([1]; +GSH): 175% | Emax ([1]; −GSH): 236% | EC50 [1, 8]: 11.6 µM | EC50 ([1]; −GSH): 8.3 µM | CIint [2]: 14 μL min^−1 10^−6 cells | half-life at 10 μM [3]: 107 min | IC50 [4, 9]: 11.3 µM | CIint [6]: 187 μL min^−1 10^−6 cells | half-life at 10 μM [7]: 8 min

Compound: C=C(CC(=O)OC1(c2ccc(C(F)(F)F)cc2Cl)CCC1)C(=O)OCC(=O)O [Example 11, 2-((4-(1-(2-chloro-4-(trifluoromethyl)phenyl)cyclobutoxy)-2-methylene-4-oxobutanoyl)oxy)acetic acid]
Emax ([1]; +GSH): 160% | Emax ([1]; −GSH): 214% | EC50 [1, 8]: 5.1 µM | EC50 ([1]; −GSH): 3 µM | CIint [2]: 10 μL min^−1 10^−6 cells | half-life at 10 μM [3]: 152 min | IC50 [4, 9]: 9 µM | CIint [6]: 100 μL min^−1 10^−6 cells | half-life at 10 μM [7]: 15 min

Compound: C=C(CC(=O)OC1(c2ccc(Br)cc2Cl)CCC1)C(=O)OCC(=O)O [Example 12, 2-((4-(1-(4-bromo-2-chlorophenyl)cyclobutoxy)-2-methylene-4-oxobutanoyl)oxy)acetic acid]
Emax ([1]; +GSH): 158% | Emax ([1]; −GSH): 217% | EC50 [1, 8]: 7.9 µM | EC50 ([1]; −GSH): 5.2 µM | CIint [2]: 23 μL min^−1 10^−6 cells | half-life at 10 μM [3]: 64 min | IC50 [4, 9]: 8.8 µM | CIint [6]: 239 μL min^−1 10^−6 cells | half-life at 10 μM [7]: 6 min

Compound: C=C(CC(=O)OC1(c2ccc(C)c(Cl)c2)CCC1)C(=O)OCC(=O)O [Example 20, 2-((4-(1-(3-chloro-4-methylphenyl)cyclobutoxy)-2-methylene-4-oxobutanoyl)oxy)acetic acid]
CIint [2]: 15 μL min^−1 10^−6 cells | half-life at 10 μM [3]: 84 min | IC50 [4, 9]: 8.7 µM | CIint [6]: 77 μL min^−1 10^−6 cells | half-life at 10 μM [7]: 26 min

CIint [2]: 16 μL min^−1 10^−6 cells | half-life at 10 μM [3]: 86 min | IC50 [4, 9]: 16.7 µM | IC50 [5, 9]: > 100 µM | CIint [6]: 33 μL min^−1 10^−6 cells | half-life at 10 μM [7]: 39 min
Compound: C=C(CC(=O)OC1(c2ccc(C(F)(F)F)cc2)CC1)C(=O)OCC(=O)O [Example 30, 2-((2-methylene-4-oxo-4-(1-(4-(trifluoromethyl)phenyl)cyclopropoxy)butanoyl)oxy)acetic acid]

CIint [2]: 4 μL min^−1 10^−6 cells | half-life at 10 μM [3]: 407 min | IC50 [4, 9]: 7.4 µM | IC50 [5, 9]: 11.9 µM | CIint [6]: 36 μL min^−1 10^−6 cells | half-life at 10 μM [7]: 41 min
Compound: C=C(CC(=O)OC1(c2ccc(C(F)(F)F)cc2)COC1)C(=O)OCCC(=O)O [Example 32, 3-((2-methylene-4-oxo-4-((3-(4-(trifluoromethyl)phenyl)oxetan-3-yl)oxy)butanoyl)oxy)propanoic acid]

From US20230399289A1, “ITACONIC ACID DERIVATIVES” (Sitryx Therapeutics Limited, priority 2020, published 2023)
